# Measurements reported in publication PMC9606187, “Dual HDAC/BRD4 Inhibitors Relieves Neuropathic Pain by Attenuating Inflammatory Response in Microglia After Spared Nerve Injury” (Neurotherapeutics, 2022).
# What was measured:
# [1] = biological target: T1, HDAC1 (Homo sapiens, UniProt Q13547); experiment: HDAC1 immunoprecipitation & activity assay on treated HCT-116 cells; format: cell-based; details: HCT-116 cells treated at 10 µM for 12 h; in comparison with SAHA
# T1 construct: endogenous in cells; host or cells: HCT-116
# T1 sequence (Q13547 whole entry): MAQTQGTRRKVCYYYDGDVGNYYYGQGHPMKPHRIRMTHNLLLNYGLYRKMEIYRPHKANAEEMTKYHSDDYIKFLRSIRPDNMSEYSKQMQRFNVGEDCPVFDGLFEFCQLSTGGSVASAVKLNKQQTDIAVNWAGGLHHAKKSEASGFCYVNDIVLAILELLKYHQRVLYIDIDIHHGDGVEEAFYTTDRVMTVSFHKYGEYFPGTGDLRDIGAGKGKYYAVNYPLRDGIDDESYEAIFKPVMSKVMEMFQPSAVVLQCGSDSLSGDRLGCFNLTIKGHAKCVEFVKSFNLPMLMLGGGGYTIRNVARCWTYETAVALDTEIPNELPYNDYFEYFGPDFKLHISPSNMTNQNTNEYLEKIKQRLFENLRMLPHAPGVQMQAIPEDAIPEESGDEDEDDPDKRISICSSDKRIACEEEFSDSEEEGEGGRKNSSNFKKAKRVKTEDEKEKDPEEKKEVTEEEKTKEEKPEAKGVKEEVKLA
# Protocol: HDAC assay: To test the inhibition activity of compounds, the HDAC1 immunoprecipitation (IP) & Activity Assay Kit (Catalog # K342-25; Biovision) was used under the protocol provided by the kit. HCT-116 cell lines were plated in 6 wells and treated with the investigated compounds at 10 µM for 12 h. After incubation, the media was removed, and the cells were washed with PBS (EuroClone) solution (2X). Then, 200 µl/well of lysis buffer with protease inhibitor was added and the cells were scraped and incubated in ice for 30 min. After centrifugation at 10,000 g for 10 min at 4 °C, the supernatant was collected. One hundred micrograms of each extract was incubated with 6 µl of Rabbit HDAC1 antibody and Rabbit IgG and the volume was reached to 500 µl with PBS with protease inhibitors. After incubation at 4 °C overnight a rotary mixer, 25 µl of the protein-A/G bead slurry, previously washed with PBS (2X), was added to the samples and incubated for 1 h at 4 °C. The beads were recovered after 3 washes with 1 ml PBS, by centrifuging at 14,000 g for ~ 10 s and used for HDAC assay.
# HDAC assay preparation: For each reaction, 168 µl reaction mix containing HDAC assay buffer and HDAC substrate was prepared, added to the sample and to background control tube, and incubated at 37 °C for 2 h. SAHA was used as a positive control. […] The fluorescence was read at Ex/Em = 380/500 nm with Tecan M1000 plate reader.
# [2] = system: SNI mice; experiment: Hole-board test; format: in vivo; details: 50 µM i.n., vs vehicle-treated SNI mice
# Protocol: The spontaneous locomotor behavior was evaluated by using the hole-board test. Movements of the animal on the plane represent the spontaneous mobility, and the head-dips in the holes by the mice represent the exploratory activity.
# [3] = system: SNI mice; experiment: Rotarod test; format: in vivo; details: 50 µM i.n., vs vehicle-treated SNI mice
# Protocol: The possible alteration of motor performance induced by each treatment was assessed by rotarod test, as previously described. The integrity of motor coordination was assessed as number of falls from the rod in 30 s.
# [4] = Intrinsic fluorescence of the compound in spinal cord after i.n. delivery; format: in vivo, mice
# Text: On postsurgical day 14, animals were perfused transcardially with 4% paraformaldehyde in 0.1 M phosphate buffer (PBS, pH 7.4). After perfusion, lumbar spinal cord was quickly removed and processed as previously described. Four animals per groups were used for this analysis. […] Primary antibody used was IBA1 (1:100; Santa Cruz Biotechnology Cat# sc-32725, RRID:AB_667733). […] A Leica DM6000B fluorescence microscope equipped with a DFC350FX digital camera with appropriate excitation and emission filters for each fluorophore was used to acquire representative images. […] The immunofluorescence intensity was calculated by ImageJ (Wayne Rasband, National Institute of Health, USA).
# Co-localization of two different labels was measured using EzColocalization plugin (ImageJ). The extent of co-localization was determined by calculating the Mander’s overlap coefficient (MOC) and the Pearson’s correlation coefficient (PCC). […] PCC quantify the correlation between individual fluorophores considering their intensities. PCC is characterized by determined value range: −1, which indicate anticolocalization; +1, which indicates colocalization; 0, which indicates there is no colocalization.
# [5] = system: IL-6; experiment: Western blot of lumbar spinal cord, IL-6; format: in vivo, mice; details: SNI ipsilateral side, day 7 and 14
# Protocol: The lumbar spinal cord was removed 7 and 14 days after surgery and 90 min after the intranasal administration of SUM52, corresponding to the peack of the effect. Samples (n = 4 for groups) were homogenized in a homogenization buffer and processed as previously described. Protein samples (40 µg of protein/sample) were separated on 10% SDS-PAGE and transferred onto nitrocellulose membranes (120 min at 100 V) using standard procedures. Membranes were blocked in PBST (PBS containing 0.1% Tween) containing 5% nonfat dry milk for 120 min. […] Blots were then extensively washed and developed using enhanced chemiluminescence detection system (Pierce, Milan, Italy) and signal intensity (pixels/mm^2) quantified (ImageJ, NIH). […] For each sample, the signal intensity was normalized to that of total protein stained by Ponceau S and the acquired images were quantified using Image Lab software. […]
smiles,measurement,setting,value
"Cc1nnc2n1-c1ccccc1C(c1ccccc1)=N[C@H]2CC(=O)NCCCCCCC(=O)NO [SUM52, (S)-N-hydroxy-7-(2-(1-methyl-6-phenyl-4H-benzo[f][1,2,4]triazolo[4,3-a][1,4]diazepin-4-yl)acetamido)heptanamide]",inhibition of HDAC1 enzymatic activity,[1],Partial inhibition
same,exploratory activity (hole board test),[2],no alteration
same,spontaneous mobility (hole board test),[2],no alteration
same,motor coordination (rotarod test),[3],no alteration
same,distribution to spinal cord (intrinsic fluorescence),"[4]; after i.n. delivery, vs vehicle-treated mice",able to reach the spinal cord and diffuse into the tissue
same,intrinsic fluorescence in microglial cells,"[4]; spinal cord sections of SNI mice, IBA1 co-staining",detected in IBA1 positive microglial cells
same,IL-6 expression,[5],drastically reduced
